Test results taken from US7655392B2, “Quenching methods for red blood cell inactivation process” (priority 2004, dated 2010).
Several values for one entry are separate records, joined by “and”; a condition that tells them apart may be missing. Equal values may be shown once. Read-outs that look alike come from different tables or passages of the source.

Test system: red blood cells
Type: cell-based
Description: In another assay, the rabbit polyclonal sera may be reacted with treated red blood cells. After washing off unbound antibody, a FITC labeled goat anti-rabbit Fab′2 fragment (anti H+L chains, Caltag) is added. The binding of FITC label to the red blood cells correlates with the amount of acridine bound to the red blood cell surface, and is assessed by FACScan™ analysis (Becton, Dickinson and Co., NJ). The relative modification of the red blood cells is determined from the FACScan™ mean fluorescence value.
A 20 mL sample of leukoreduced whole blood (Blood Source, Sacramento, Calif.) was centrifuged at 4,100×g for 5 minutes at room temperature in each of four 50 mL centrifuge tubes. The supernatant was removed from each tube to provide red cell concentrate (RCC). […] For each washed RCC, cells were resuspended in 5 mL of the solution used for washing. This is now referred to as the RBC test sample. […] These samples were incubated for 20 hours at room temperature. After incubation, the RBC were washed in BBS (Blood Bank Saline, 0.9% saline, unbuffered, Fisher Scientific) and were diluted to a final hematocrit of 4%. A 25 μL aliquot of each was mixed with 15 μL of rabbit polyclonal anti-acridine sera diluted 1:100 in BBS and the mixture was incubated at 37° C. for 30 minutes. The cells were subsequently washed with 1.5 mL BBS. After washing was complete, the cells were mixed with 50 μL of FITC labeled goat anti-rabbit Fab′2 fragment (1:64 dilution in BBS) and incubated at 37° C. for 30 minutes. […] Note that the quenching improves as glutathione is neutralized with increasing amounts of sodium hydroxide.
The FACScan analysis of the binding of rabbit anti-acridine sera to treated red cells was used to assess a variety of quenching conditions. […] The tables represent data from two different experiments, each with samples treated under standard conditions or with 20 mM neutralized glutathione. […] The data within an experiment provides the relative efficacy of the various treatments. Because the assay may depend on the lot of red blood cells used, the absolute values of mean fluorescence may vary from one study to the next, such that relative values should only be compared within a given experiment. […] Neutralized glutathione at 20 mM results in close to background levels.
An untreated control sample as well as a standard sample (co-addition of 2 mM acidic glutathione with 0.2 mM PIC-1) were also assessed.
Full units of red cell concentrates (Interstate Blood Bank, Inc., Memphis, Tenn.) were leukoreduced. A volume of 200 mL of this RCC (80% hematocrit) was mixed with 94 mL of Erythrosol or 100 mL of Adsol (Baxter Healthcare Corp., Deerfield, Ill.) as control (unit 1). A volume of 20 mL 8% dextrose was used to dissolve PIC-1 (mg) and acid glutathione (mg) and added to one unit to provide 0.2 mM PIC-1 and 2 mM glutathione (unit 2). […] For the glutathione, 1.2 mL of 10 N NaOH was added (2 equivalents). The PIC-1 was mixed with the unit, followed 1 minute later (unit 3) or 5 minutes later (unit 4) by glutathione. For unit 5, neutralized glutathione was mixed first, followed 10 minutes later by the PIC-1. […] All units were mixed by grasping the ends of the blood bag and mixing in a FIG. 8 motion 30 times. These were then incubated at room temperature for 20 hours total. A compound adsorption device (CAD), comprising a polymeric resin contained within a mesh pouch, was used for all but the control sample. This device is intended to remove residual PIC-1, PIC-1 breakdown products, and glutathione from the samples. Samples were incubated for 8 hours, then transferred to a second blood bag containing the CAD and incubated for an additional 12 hours. Following the room temperature incubation, samples were transferred to a refrigerator (4° C.) and stored up to 43 days.

## O=C(CCNc1c2ccccc2nc2ccccc12)OCCN(CCCl)CCCl [PIC-1]
16C day 14, unit 2: standard 0.2 mM PIC-1+2 mM GSH
  mean fluorescence: 135.7
16C day 14, unit 3: 0.2 mM PIC-1, 1' delay, 20 mM GSH+2 eq base
  mean fluorescence: 4.09
16C day 14, unit 4: 0.2 mM PIC-1, 5' delay, 20 mM GSH+2 eq base
  mean fluorescence: 8.41
16C day 14, unit 5: 20 mM GSH+2 eq base, 10' delay, 0.2 mM PIC-1
  mean fluorescence: 3.29
16C day 22, unit 2: standard 0.2 mM PIC-1+2 mM GSH
  mean fluorescence: 90.8
16C day 22, unit 3: 0.2 mM PIC-1, 1' delay, 20 mM GSH+2 eq base
  mean fluorescence: 2.61
16C day 22, unit 4: 0.2 mM PIC-1, 5' delay, 20 mM GSH+2 eq base
  mean fluorescence: 4.46
16C day 22, unit 5: 20 mM GSH+2 eq base, 10' delay, 0.2 mM PIC-1
  mean fluorescence: 2.12
16C day 28, unit 2: standard 0.2 mM PIC-1+2 mM GSH
  mean fluorescence: 128.7
16C day 28, unit 3: 0.2 mM PIC-1, 1' delay, 20 mM GSH+2 eq base
  mean fluorescence: 2.6
16C day 28, unit 4: 0.2 mM PIC-1, 5' delay, 20 mM GSH+2 eq base
  mean fluorescence: 5.69
16C day 28, unit 5: 20 mM GSH+2 eq base, 10' delay, 0.2 mM PIC-1
  mean fluorescence: 2.83
16C day 35, unit 2: standard 0.2 mM PIC-1+2 mM GSH
  mean fluorescence: 153.4
16C day 35, unit 3: 0.2 mM PIC-1, 1' delay, 20 mM GSH+2 eq base
  mean fluorescence: 2.74
16C day 35, unit 4: 0.2 mM PIC-1, 5' delay, 20 mM GSH+2 eq base
  mean fluorescence: 6.71
16C day 35, unit 5: 20 mM GSH+2 eq base, 10' delay, 0.2 mM PIC-1
  mean fluorescence: 2.58
16C day 43, unit 2: standard 0.2 mM PIC-1+2 mM GSH
  mean fluorescence: 136.1
16C day 43, unit 3: 0.2 mM PIC-1, 1' delay, 20 mM GSH+2 eq base
  mean fluorescence: 2.43
16C day 43, unit 4: 0.2 mM PIC-1, 5' delay, 20 mM GSH+2 eq base
  mean fluorescence: 4.51
16C day 43, unit 5: 20 mM GSH+2 eq base, 10' delay, 0.2 mM PIC-1
  mean fluorescence: 2.46
RBC CHES pH 9 3x wash, 0.2 mM PIC-1, 2 mM GSH
  Mean fluorescence intensity: 12.1
RBC CHES pH 9 3x wash, 0.2 mM PIC-1, 20 mM GSH+0.9 eq NaOH
  Mean fluorescence intensity: 3.9
RBC CHES pH 9 3x wash, 0.2 mM PIC-1, 20 mM GSH+1.5 eq NaOH
  Mean fluorescence intensity: 1.9
RBC CHES pH 9 3x wash, 0.2 mM PIC-1, 20 mM GSH+2 eq NaOH
  Mean fluorescence intensity: 1.9
RBC Erythrosol pH 7.3 3x wash, 0.2 mM PIC-1, 2 mM GSH
  Mean fluorescence intensity: 199
RBC Erythrosol pH 7.3 3x wash, 0.2 mM PIC-1, 20 mM GSH+0.9 eq NaOH
  Mean fluorescence intensity: 26.7
RBC Erythrosol pH 7.3 3x wash, 0.2 mM PIC-1, 20 mM GSH+1.5 eq NaOH
  Mean fluorescence intensity: 4.9
RBC Erythrosol pH 7.3 3x wash, 0.2 mM PIC-1, 20 mM GSH+2 eq NaOH
  Mean fluorescence intensity: 3.4
RBC PBS pH 8 3x wash, 0.2 mM PIC-1, 2 mM GSH
  Mean fluorescence intensity: 25
RBC PBS pH 8 3x wash, 0.2 mM PIC-1, 20 mM GSH+0.9 eq NaOH
  Mean fluorescence intensity: 7.2
RBC PBS pH 8 3x wash, 0.2 mM PIC-1, 20 mM GSH+1.5 eq NaOH
  Mean fluorescence intensity: 5.1
RBC PBS pH 8 3x wash, 0.2 mM PIC-1, 20 mM GSH+2 eq NaOH
  Mean fluorescence intensity: 5.1
RBC in Erythrosol pH 7.3 no wash, 0.2 mM PIC-1, 2 mM GSH
  Mean fluorescence intensity: 108
RBC in Erythrosol pH 7.3 no wash, 0.2 mM PIC-1, 20 mM GSH+0.9 eq NaOH
  Mean fluorescence intensity: 17.0
RBC in Erythrosol pH 7.3 no wash, 0.2 mM PIC-1, 20 mM GSH+1.5 eq NaOH
  Mean fluorescence intensity: 8.1
RBC in Erythrosol pH 7.3 no wash, 0.2 mM PIC-1, 20 mM GSH+2 eq NaOH
  Mean fluorescence intensity: 6.0
Table 9A: 0.2 mM PIC-1+2 mM GSH, 0 eq NaOH, no delay (standard)
  mean fluorescence: 114
Table 9A: 5 mM Cys+2 eq NaOH, then 0.2 mM PIC-1 after 5 min
  mean fluorescence: 8
Table 9A: 5 mM Cys+2 eq NaOH, then 0.2 mM PIC-1 after 10 min
  mean fluorescence: 10.8
Table 9A: 5 mM Cys+2 eq NaOH, then 0.2 mM PIC-1 after 20 min
  mean fluorescence: 8
Table 9A: 10 mM Cys+2 eq NaOH, then 0.2 mM PIC-1 after 10 min
  mean fluorescence: 2.9
Table 9A: 15 mM Cys+2 eq NaOH, then 0.2 mM PIC-1 after 10 min
  mean fluorescence: 1.9
Table 9A: 20 mM Cys+2 eq NaOH, then 0.2 mM PIC-1 after 5 min
  mean fluorescence: 1.9
Table 9A: 20 mM Cys+2 eq NaOH, then 0.2 mM PIC-1 after 10 min
  mean fluorescence: 1.9
Table 9A: 20 mM Cys+2 eq NaOH, then 0.2 mM PIC-1 after 20 min
  mean fluorescence: 2
Table 9A: 20 mM GSH+2 eq NaOH, then 0.2 mM PIC-1 after 10 min
  mean fluorescence: 2.6
Table 9A: […] Cys+2 eq NaOH, then 0.2 mM PIC-1 after 10 min
  mean fluorescence: 37
Table 9B: 0.2 mM PIC-1+2 mM GSH, 0 eq NaOH, no delay (standard)
  mean fluorescence: 160 and 151 and 182
Table 9B: 5 mM Cys+1 eq NaOH, then 0.2 mM PIC-1 after 10 min
  mean fluorescence: 19.28
Table 9B: 5 mM Cys+2 eq NaOH, then 0.2 mM PIC-1 after 10 min
  mean fluorescence: 14.1
Table 9B: 5 mM Cys, 0 eq NaOH, then 0.2 mM PIC-1 after 10 min
  mean fluorescence: 49
Table 9B: 10 mM Cys+1 eq NaOH, then 0.2 mM PIC-1 after 10 min
  mean fluorescence: 5.1
Table 9B: 10 mM Cys+2 eq NaOH, then 0.2 mM PIC-1 after 10 min
  mean fluorescence: 3.6
Table 9B: 10 mM Cys, 0 eq NaOH, then 0.2 mM PIC-1 after 10 min
  mean fluorescence: 11.6
Table 9B: 20 mM Cys+1 eq NaOH, then 0.2 mM PIC-1 after 10 min
  mean fluorescence: 2.5
Table 9B: 20 mM Cys, 0 eq NaOH, then 0.2 mM PIC-1 after 10 min
  mean fluorescence: 4.3
Table 9B: 20 mM GSH+2 eq NaOH, then 0.2 mM PIC-1 after 10 min
  mean fluorescence: 6.06 and 5.62 and 5.6
Table 9B: […] Cys+1 eq NaOH, then 0.2 mM PIC-1 after 10 min
  mean fluorescence: 49.5
Table 9B: […] Cys+2 eq NaOH, then 0.2 mM PIC-1 after 10 min
  mean fluorescence: 49
Table 9B: […] Cys, 0 eq NaOH, then 0.2 mM PIC-1 after 10 min
  mean fluorescence: 44
Table 11C: 2 mM GSH, 1 eq. base, then 0.2 mM PIC-1
  mean fluorescence: 208.05
Table 11C: 2 mM GSH, 2 eq. base, then 0.2 mM PIC-1
  mean fluorescence: 160.37
Table 11C: 2 mM GSH, no added base, then 0.2 mM PIC-1
  mean fluorescence: 179.17
Table 11C: 5 mM GSH, 1 eq. base, then 0.2 mM PIC-1
  mean fluorescence: 87.6
Table 11C: 5 mM GSH, 2 eq. base, then 0.2 mM PIC-1
  mean fluorescence: 67.56
Table 11C: 5 mM GSH, no added base, then 0.2 mM PIC-1
  mean fluorescence: 95.57
Table 11C: 10 mM GSH, 1 eq. base, then 0.2 mM PIC-1
  mean fluorescence: 47.18
Table 11C: 10 mM GSH, 2 eq. base, then 0.2 mM PIC-1
  mean fluorescence: 27.45
Table 11C: 10 mM GSH, no added base, then 0.2 mM PIC-1
  mean fluorescence: 88.21
Table 11C: 20 mM GSH, 1 eq. base, then 0.2 mM PIC-1
  mean fluorescence: 29.97
Table 11C: 20 mM GSH, 2 eq. base, then 0.2 mM PIC-1
  mean fluorescence: 13.37
Table 11C: 20 mM GSH, no added base, then 0.2 mM PIC-1
  mean fluorescence: 187.74
Table 11C: co-addition std., 2 mM acidic glutathione with 0.2 mM PIC-1
  mean fluorescence: 144.33
